ChEMBL document CHEMBL1201862, “PubChem BioAssay data set” (2004)
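Interpolation was linear, between the two tested concentrations surrounding the appropriate level; five concentrations were tested over 48 hours in 96-well plates. The concentration for 50% growth inhibition is given as GI50.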 The source made the active and inactive calls. Rule as the data show it: active = GI50 up to about 1.1 µM and inactive = higher.

Legend:
Test in all cases: DTP human tumour cell line panel, 48 h
PC-3 = tested on: PC-3
HCT-116 = tested on: HCT-116
Hs-578T = tested on: Hs-578T
EKVX = tested on: EKVX
SNB-19 = tested on: SNB-19
RPMI-8226 = tested on: RPMI-8226
HCT-15 = tested on: HCT-15
K562 = tested on: K562
HOP-92 = tested on: HOP-92
OVCAR-3 = tested on: OVCAR-3
RXF 393 = tested on: RXF 393
U-251 = tested on: U-251
MCF7 = tested on: MCF7
KM12 = tested on: KM12
A498 = tested on: A498
BT-549 = tested on: BT-549
786-0 = tested on: 786-0
OVCAR-5 = tested on: OVCAR-5
SK-MEL-28 = tested on: SK-MEL-28
NCI-H522 = tested on: NCI-H522

Structure (SMILES) | GI50 (PC-3) | GI50 (HCT-116) | GI50 (Hs-578T) | GI50 (EKVX) | GI50 (SNB-19) | GI50 (RPMI-8226) | GI50 (HCT-15) [µM] | GI50 (K562) | GI50 (HOP-92) | GI50 (OVCAR-3) | GI50 (RXF 393) | GI50 (U-251) | GI50 (MCF7) | GI50 (KM12) | GI50 (A498) | GI50 (BT-549) | GI50 (786-0) | GI50 (OVCAR-5) | GI50 (SK-MEL-28) | GI50 (NCI-H522)
CC[C@@H]1/C=C/C=C/C[C@H](C)[C@@H](O)[C@@H](C)C(=O)[C@H](C)[C@@H](O)[C@H](C)C(=O)[C@H](C)[C@@H](O)[C@H](C)/C=C/C(=O)O[C@H]2[C@@H](C)[C@@H](CC1)O[C@@]1(CC[C@@H](C)[C@@H](CC(C)O)O1)[C@@H]2C (stereo not given in full) | 0.00678 µM (active) | 2.58 µM (inactive) | 6.03 µM (inactive) | < 0.0025 µM (active) | 0.00491 µM (active) | 0.057 µM (active) | 4.06 | 0.00504 µM (active) | 3.25 µM (inactive) | 2.62 µM (inactive) | 3.07 µM (inactive) | 0.00361 µM (active) | 0.00269 µM (active) | 3.41 µM (inactive) | 0.0989 µM (active) | 4.32 µM (inactive) | 5.9 µM (inactive) | 3.63 µM (inactive) | 10.6 µM (inactive) | 0.0188 µM (active)
Cc1cc(N(CCC#N)CCC#N)ccc1C(=N/NC(=O)c1cc(Cl)ccc1O)/N=N/c1cccc(Cl)c1 | 10.1 µM (inactive) | 12.2 µM (inactive) | 39.1 µM (inactive) | 14.4 µM (inactive) | 22.9 µM (inactive) | 9.79 µM (inactive) | 6.62 | 15.7 µM (inactive) | 11.8 µM (inactive) | 3.56 µM (inactive) | 10.7 µM (inactive) | 25.2 µM (inactive) | 8.79 µM (inactive) | 11.2 µM (inactive) | 28.4 µM (inactive) | 14.8 µM (inactive) | 11.5 µM (inactive) | 41.6 µM (inactive) | 16 µM (inactive) | 13.5 µM (inactive)
COc1ccc2[nH]c3nnc(N)c-3nc2c1 | 8.43 µM (inactive) | 4.04 µM (inactive) | 3.81 µM (inactive) | 4.26 µM (inactive) | 16.5 µM (inactive) | 3.87 µM (inactive) | 7.94 | 62.4 µM (inactive) | 10.4 µM (inactive) | 3.61 µM (inactive) | 2.49 µM (inactive) | 10.6 µM (inactive) | 3.99 µM (inactive) | 5.68 µM (inactive) | 9.79 µM (inactive) | 13.6 µM (inactive) | 8.3 µM (inactive) | 7.8 µM (inactive) | 11.2 µM (inactive) | 5.83 µM (inactive)
